Experimental data as given in ChEMBL document CHEMBL3885881, “DrugMatrix”.

Species: Rattus norvegicus
Assay: DrugMatrix - Regimen: Daily Repeat
Assay type: toxicity, organism-based, Sprague-Dawley
Parameters: regimen Daily Repeat, gender Male, age 6-8 weeks
Conditions: in vivo, po, route oral GAVAGE, […]; for ABSOLUTE BASOPHIL / ABSOLUTE EOSINOPHIL / BASOPHIL / NUCLEATED RED BLOOD CELLS / EOSINOPHIL / ABSOLUTE MONOCYTE / ABSOLUTE SEGMENTED NEUTROPHIL / ERYTHROCYTE COUNT / HEMATOCRIT / HEMOGLOBIN / LEUKOCYTE COUNT / LYMPHOCYTE / MEAN CORPUSCULAR HEMOGLOBIN / MEAN CORPUSCULAR HEMOGLOBIN CONCENTRATION / MEAN CORPUSCULAR VOLUME / MONOCYTE / NEUTROPHIL / PLATELET COUNT: tissue Blood
[1] = 0 mg/kg, 72 h, dose level Control, time 3 day
[2] = 0 mg/kg, 72 h, tissue Plasma, dose level Control, time 3 day
[3] = 0 mg/kg, 120 h, dose level Control, time 5 day
[4] = 100 mg/kg, 72 h, dose level Low, time 3 day
[5] = 100 mg/kg, 72 h, tissue Plasma, dose level Low, time 3 day
[6] = 100 mg/kg, 120 h, dose level Low, time 5 day
[7] = 100 mg/kg, 120 h, tissue Plasma, dose level Low, time 5 day

COc1cc([C@@H]2c3cc4c(cc3[C@@H](O[C@@H]3O[C@@H]5CO[C@@H](C)O[C@H]5[C@H](O)[C@H]3O)[C@H]3COC(=O)[C@H]23)OCO4)cc(OC)c1O [ETOPOSIDE]
ABSOLUTE BASOPHIL [1]: 0 CELLS/uL
ABSOLUTE EOSINOPHIL [1]: 52.33 CELLS/uL
BASOPHIL [1]: 0%
NUCLEATED RED BLOOD CELLS [1]: 0 /100WBC
CREATININE [2]: 0.33 mg/dL
POTASSIUM [2]: 5.37 MEQ/L
TOTAL BILIRUBIN [2]: 0.2 mg/dL
ABSOLUTE BASOPHIL [3]: 0 CELLS/uL
ABSOLUTE EOSINOPHIL [3]: 0 CELLS/uL
BASOPHIL [3]: 0%
EOSINOPHIL [3]: 0%
TOTAL BILIRUBIN (0 mg/kg, 120 h, tissue Plasma, dose level Control, time 5 day): 0.37 mg/dL
ABSOLUTE BASOPHIL [4]: 0 CELLS/uL
ABSOLUTE EOSINOPHIL [4]: 0 CELLS/uL
ABSOLUTE MONOCYTE [4]: 20.33 CELLS/uL
ABSOLUTE SEGMENTED NEUTROPHIL [4]: 390.33 CELLS/uL
BASOPHIL [4]: 0%
EOSINOPHIL [4]: 0%
ERYTHROCYTE COUNT [4]: 4.86 x10E6/uL
HEMATOCRIT [4]: 29.9%
HEMOGLOBIN [4]: 12.13 G/DL
LEUKOCYTE COUNT [4]: 5.67 x10E3/uL
LYMPHOCYTE [4]: 90%
MEAN CORPUSCULAR HEMOGLOBIN [4]: 24.93 pg
MEAN CORPUSCULAR HEMOGLOBIN CONCENTRATION [4]: 40.57 G/DL
MEAN CORPUSCULAR VOLUME [4]: 61.53 fL
MONOCYTE [4]: 0.33%
NEUTROPHIL [4]: 9.67%
NUCLEATED RED BLOOD CELLS [4]: 0 /100WBC
PLATELET COUNT [4]: 1214.33 x10E3/uL
ALANINE AMINOTRANSFERASE [5]: 36.67 u/L
ALBUMIN [5]: 3.7 G/DL
ASPARTATE AMINOTRANSFERASE [5]: 67.67 u/L
BLOOD UREA NITROGEN [5]: 7.67 mg/dL
CARBON DIOXIDE [5]: 27 mmol/L
CHLORIDE [5]: 102.67 MEQ/L
CHOLESTEROL [5]: 92 mg/dL
CREATINE PHOSPHOKINASE [5]: 255.67 u/L
CREATININE [5]: 0.23 mg/dL
GLUCOSE [5]: 185 mg/dL
LACTATE DEHYDROGENASE [5]: 162.33 u/L
PHOSPHORUS [5]: 11 mg/dL
POTASSIUM [5]: 4.69 MEQ/L
SODIUM [5]: 145 MEQ/L
TOTAL BILIRUBIN [5]: 0.1 mg/dL
TOTAL PROTEIN [5]: 5.5 G/DL
URIC ACID [5]: 0.8 mg/dL
ABSOLUTE BASOPHIL [6]: 0 CELLS/uL
ABSOLUTE EOSINOPHIL [6]: 0 CELLS/uL
ABSOLUTE MONOCYTE [6]: 12 CELLS/uL
ABSOLUTE SEGMENTED NEUTROPHIL [6]: 593.67 CELLS/uL
BASOPHIL [6]: 0%
EOSINOPHIL [6]: 0%
ERYTHROCYTE COUNT [6]: 4.82 x10E6/uL
HEMATOCRIT [6]: 30.6%
HEMOGLOBIN [6]: 12.2 G/DL
LEUKOCYTE COUNT [6]: 4.43 x10E3/uL
LYMPHOCYTE [6]: 86%
MEAN CORPUSCULAR HEMOGLOBIN [6]: 25.37 pg
MEAN CORPUSCULAR HEMOGLOBIN CONCENTRATION [6]: 39.9 G/DL
MEAN CORPUSCULAR VOLUME [6]: 63.67 fL
MONOCYTE [6]: 0.33%
NEUTROPHIL [6]: 13.67%
NUCLEATED RED BLOOD CELLS [6]: 0 /100WBC
PLATELET COUNT [6]: 1205.67 x10E3/uL
ALANINE AMINOTRANSFERASE [7]: 53.33 u/L
ALBUMIN [7]: 3.97 G/DL
ASPARTATE AMINOTRANSFERASE [7]: 81 u/L
BLOOD UREA NITROGEN [7]: 8.33 mg/dL
CHLORIDE [7]: 104.33 MEQ/L
CHOLESTEROL [7]: 87.67 mg/dL
CREATINE PHOSPHOKINASE [7]: 278.33 u/L
CREATININE [7]: 0.3 mg/dL
GLUCOSE [7]: 157 mg/dL
LACTATE DEHYDROGENASE [7]: 65.67 u/L
LIPASE [7]: 8.67 u/L
